Test results published in patent publication US9226950B2, “Method and composition for treating diabetes mellitus” (National Dong Hwa University, priority 2013, dated 2016).

Legend:
Insr = target: T1, Insr (Rattus norvegicus, UniProt P15127); test: Phosphorylation of insulin receptors (Tyr1158/Tyr1162/Tyr1163) in L6 cells, Western blot; assay type: cell-based; conditions: FIG. 1(a)
T1 construct: L6 cells were fully differentiated with α-MEM supplemented with 2% FBS for 5 days to myotubes; endogenous in cells; host or cells: L6 myoblasts differentiated to myotubes
T1 sequence (P15127 27-759 limits assumed): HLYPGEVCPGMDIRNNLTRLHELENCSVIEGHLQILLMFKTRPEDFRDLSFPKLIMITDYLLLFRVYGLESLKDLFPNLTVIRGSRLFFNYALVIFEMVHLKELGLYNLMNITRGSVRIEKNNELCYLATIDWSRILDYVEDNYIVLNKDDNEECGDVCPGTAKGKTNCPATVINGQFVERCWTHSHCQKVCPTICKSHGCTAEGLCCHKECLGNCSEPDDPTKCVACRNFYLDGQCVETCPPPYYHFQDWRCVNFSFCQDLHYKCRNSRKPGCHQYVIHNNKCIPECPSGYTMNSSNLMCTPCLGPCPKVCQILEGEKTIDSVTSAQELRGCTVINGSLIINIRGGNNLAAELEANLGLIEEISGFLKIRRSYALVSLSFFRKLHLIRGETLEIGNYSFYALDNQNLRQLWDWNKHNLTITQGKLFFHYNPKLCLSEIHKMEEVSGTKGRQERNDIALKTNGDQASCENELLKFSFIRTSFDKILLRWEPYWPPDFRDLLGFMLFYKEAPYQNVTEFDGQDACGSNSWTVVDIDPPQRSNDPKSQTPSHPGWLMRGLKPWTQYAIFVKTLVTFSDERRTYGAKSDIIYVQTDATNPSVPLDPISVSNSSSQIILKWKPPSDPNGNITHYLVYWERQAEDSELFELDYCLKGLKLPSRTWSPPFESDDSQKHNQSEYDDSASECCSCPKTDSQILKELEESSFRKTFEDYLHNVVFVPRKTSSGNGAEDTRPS
T1 sequence (P15127 764-1383 limits assumed): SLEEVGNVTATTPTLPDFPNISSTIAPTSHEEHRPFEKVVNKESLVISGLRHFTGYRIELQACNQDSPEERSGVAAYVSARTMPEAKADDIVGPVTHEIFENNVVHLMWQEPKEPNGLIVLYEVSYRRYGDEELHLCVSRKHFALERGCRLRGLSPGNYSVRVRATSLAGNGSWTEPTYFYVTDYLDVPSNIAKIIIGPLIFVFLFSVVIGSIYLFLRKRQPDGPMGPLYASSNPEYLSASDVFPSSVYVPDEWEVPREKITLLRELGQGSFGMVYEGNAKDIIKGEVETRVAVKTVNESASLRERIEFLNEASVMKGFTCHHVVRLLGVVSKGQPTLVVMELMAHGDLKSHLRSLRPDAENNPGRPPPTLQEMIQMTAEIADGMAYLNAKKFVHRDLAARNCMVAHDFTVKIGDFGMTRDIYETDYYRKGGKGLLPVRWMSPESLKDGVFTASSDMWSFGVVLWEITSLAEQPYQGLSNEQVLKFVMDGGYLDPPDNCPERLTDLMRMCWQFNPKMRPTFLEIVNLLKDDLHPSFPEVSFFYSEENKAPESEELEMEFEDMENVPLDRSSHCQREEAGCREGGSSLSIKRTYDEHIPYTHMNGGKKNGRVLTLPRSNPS
Method: (§1) […] muscle myoblast cells (L6) was a generous gift from Professor Hitoshi Ashida's Lab. (Kobe University, Kobe, Japan). The cells were grown and maintained in α-minimal essential medium (α-MEM, 12000022, GIBCO, CA, USA) containing 10% fetal bovine serum (FBS, GIBCO) and 1% penicillin streptomycin (GIBCO) in a cell culture incubator with 5% CO2 at 37° C. Prior to the following experiments, the cells were seeded and cultured at a density of 8×10^3 cells per well in 96-well plates or 2.5×10^5 cells per well in 6-well plates. After the myoblasts achieved 80% confluence, the cells were incubated for 5 days in the α-MEM supplemented with 2% FBS to induce differentiation to myotubes.
L6 cells were fully differentiated with α-MEM supplemented with 2% FBS for 5 days to myotubes. The cells were washed twice with Phosphate Buffered Saline (PBS) containing 0.1% BSA and subsequently incubated α-MEM containing 0.25% BSA with or without 100 nM of S961, and treated with or without 100 μM of Tetracosanol for 90 min. Then, the cells were treated with or without 10 μM of insulin for 5 min. […] The levels of the proteins including phospho-Insulin receptors (Tyr1158/Tyr1162/Tyr1163) and Insulin receptor (Cell Signaling, Boston, Mass., USA) were detected and evaluated by Western blot with primary antibody.
The cells after treatments were collected and washed twice in cold KRH buffer, and then lysed in ice-cold RIPA buffer incubation at 4° C. for 60 min. After centrifugation at 12,000×g for 30 min at 4° C., the supernatant was kept and quantified by Bradford protein assay (Bio-Rad, Hercules, Calif., USA). […] The signals were monitored using Western Lightning™ Plus-ECL (Perkin Elmer Life Sciences) and the PVDF membrane was exposed to Luminescent image analyzer (LAS)-3000 (Fujifilm, Minato, Tokyo, Japan). Acquired data were analyzed and compared the difference among treatments. […]

AMPK = test: Phosphorylation of AMPK on Thr172 in L6 cells, Western blot; assay type: cell-based, mouse; conditions: 100 μM tetracosanol 90 min, then 10 μM insulin 30 min, FIG. 2
Method: as §1
The L6 cells were fully differentiated with α-MEM supplemented with 2% FBS for 5 days to myotubes. […] The levels of the proteins including phospho-AKT (Thr308), AKT, phospho-AMPK (Thr172), and AMPK (Cell Signaling) were detected and evaluated by Western blot with primary antibody.
The cells after treatments were collected and washed twice in cold KRH buffer, and then lysed in ice-cold RIPA buffer incubation at 4° C. for 60 min. After centrifugation at 12,000×g for 30 min at 4° C., the supernatant was kept and quantified by Bradford protein assay (Bio-Rad, Hercules, Calif., USA). […] Acquired data were analyzed and compared the difference among treatments. […]

For `CCCCCCCCCCCCCCCCCCCCCCCCO` [tetracosanol], the “phosphorylation of phospho-Insr on Tyr1158, 1162, and 1163” value (Insr; insulin plus tetracosanol (Ins+Tet): 100 μM tetracosanol 90 min, then 10 μM insulin 5 min) was “tended to be enhanced”, the “phosphorylation of phospho-Insr on Tyr1158, 1162, and 1163” value (Insr; insulin with S961 plus tetracosanol (Ins+S961+Tet): 100 nM S961, 100 μM tetracosanol, 10 μM insulin) was “tended to be enhanced” and the “insulin-independent GLUT4 translocation response (phospho-AMPK on Thr172)” value (AMPK) was “no insulin-independent GLUT4 translocation response”.
